Experimental data: the supplement of paper PMC10307832

What was measured:
Experiment in all cases: relative viability (nuclei count vs DMSO), 5 days (fraction); higher = more cells survive
[1] = compound: C1/C(=C\C2=CC=CS2)/C(=O)/C(=C/C3=CC=CS3)/C1 + COc1cccc2cc(-c3nc([C@H]4CC[C@H](C(=O)O)CC4)n4ncnc(N)c34)[nH]c12 [OSI-027] (partner 0.5 µM)
Outline: (§1)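 After 5 days of treatment, lung cancer cells in 1536-well plates were fixed and stained in a single step (final 0.05% Triton X-100, 1% formaldehyde, 1 ug/ml Hoechst) and their nuclei counted on 4× images. Treatment had been applied by pin tool the day after seeding as one drug alone or as a fixed anchor-drug dose with five library-drug doses (not always all listed) in √10 steps. Relative viability is the nuclei count of treated wells divided by that of vehicle wells, and values are medians of duplicate plates.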

[2] = compound: C1/C(=C\C2=CC=CS2)/C(=O)/C(=C/C3=CC=CS3)/C1 + Cc1nc(Nc2ncc(C(=O)Nc3c(C)cccc3Cl)s2)cc(N2CCN(CCO)CC2)n1 [Dasatinib] (partner 0.075 µM)
Outline: as §1

[3] = compound: C1=CC(=CC=C1C2=CC(=C(S2)NC(=O)N)C(=O)N)F [TPCA-1] + CC(=O)Nc1cccc(-n2c(=O)n(C3CC3)c(=O)c3c(Nc4ccc(I)cc4F)n(C)c(=O)c(C)c32)c1 [Trametinib] (partner 0.02 µM)
Outline: as §1

[4] = compound: C1=CC(=CC=C1C2=CC(=C(S2)NC(=O)N)C(=O)N)F [TPCA-1] + N=C(N)NC(=N)NCCc1ccccc1 [Phenformin] (partner 250 µM)
Outline: as §1

Cell Line | relative viability ([1]; first compound 0.2 µM) | relative viability ([1]; first compound 0.6325 µM) | relative viability ([1]; first compound 2 µM) | relative viability ([1]; first compound 6.325 µM) | relative viability ([1]; first compound 20 µM) | relative viability ([2]; first compound 0.2 µM) | relative viability ([2]; first compound 0.6325 µM) | relative viability ([2]; first compound 2 µM) | relative viability ([2]; first compound 6.325 µM) | relative viability ([2]; first compound 20 µM) | relative viability ([3]; first compound 0.04 µM) | relative viability ([3]; first compound 0.1265 µM) | relative viability ([3]; first compound 0.4 µM) | relative viability ([3]; first compound 1.265 µM) | relative viability ([3]; first compound 4 µM) | relative viability ([4]; first compound 0.04 µM) | relative viability ([4]; first compound 0.1265 µM) | relative viability ([4]; first compound 0.4 µM) | relative viability ([4]; first compound 1.265 µM) | relative viability ([4]; first compound 4 µM)
BEN | 0.258 | 0.275 | 0.352 | 0.288 | 0.282 | 0.325 | 0.38 | 0.316 | 0.35 | 0.298 | 1.04 | 0.736 | 1.18 | 1.39 | 1.04 | 0.304 | 0.262 | 0.255 | 0.254 | 0.249
NCI-H3122 | 1.17 | 0.956 | 1 | 0.889 | 1.01 | 0.843 | 0.836 | 1.05 | 0.827 | 0.82 | 0.228 | 0.177 | 0.228 | 0.243 | 0.215 | 0.383 | 0.401 | 0.409 | 0.374 | 0.404
SK-MES-1 | 0.598 | 0.689 | 0.627 | 0.55 | 0.616 | 0.337 | 0.421 | 0.366 | 0.391 | 0.425 | 0.536 | 0.524 | 0.507 | 0.429 | 0.39 | 0.679 | 0.612 | 0.668 | 0.596 | 0.498
HOP-62 | 0.836 | 0.73 | 0.851 | 0.771 | 0.872 | 0.678 | 0.683 | 0.729 | 0.651 | 0.61 | 0.407 | 0.373 | 0.418 | 0.47 | 0.366 | 0.692 | 0.64 | 0.684 | 0.603 | 0.485
HCC-366 | 1.13 | 1.01 | 1.11 | 0.744 | 0.836 | 0.638 | 0.592 | 0.751 | 0.608 | 0.474 |  | 0.323 | 0.331 | 0.312 | 0.24 | 0.727 | 0.617 | 0.652 | 0.673 | 0.098
NCI-H2347 | 0.482 | 0.391 | 0.429 |  | 0.389 | 0.323 | 0.281 | 0.311 |  | 0.352 | 0.26 | 0.316 | 0.276 | 0.266 | 0.252 | 0.652 | 0.331 | 0.451 | 0.262 | 0.264
LXF-289 | 0.869 | 0.811 | 0.852 | 0.696 | 0.729 | 0.241 | 0.178 | 0.251 | 0.154 | 0.203 | 0.7 | 0.629 | 0.635 | 0.653 | 0.565 | 0.551 | 0.489 | 0.532 | 0.447 | 0.308
NCI-H1793 | 0.333 | 0.303 | 0.322 | 0.202 | 0.31 | 0.381 | 0.441 | 0.472 | 0.341 | 0.37 | 0.466 | 0.473 | 0.4 | 0.451 | 0.384 | 0.364 |  | 0.297 | 0.402 | 0.261
